Assay results published in patent US8604016B2, “Heterocyclic inhibitors of glutaminase” (Calithera Biosciences Inc., priority 2011, dated 2013).
Converted amounts (≈) assume the structure as drawn. Where two headings read alike, the source gives them in different places.

Key:
[1] = target: recombinant form of Glutaminase 1 (GAC) (Homo sapiens, UniProt O94925); test: Recombinant Enzyme Assay - Time Dependence (60 minutes enzyme/compound preincubation); format: biochemical
Description: The enzyme/compound mix was sealed with sealing foil (USA Scientific) and allowed to incubate, with mild agitation, for 60 minutes at 20° C. Enzymatic reaction was started with the addition of 50 μL of substrate solution (50 mM Tris-HCl pH 8.0, 0.2 mM EDTA, 150 mM K2HPO4, 0.1 mg/ml BSA, 1 mM DTT, 20 mM L-glutamine, 2 mM NAD^+, and 10 ppm antifoam) and read in a Molecular Devices M5 plate reader at 20° C. The plate reader was configured to read absorbance (λ=340 nm) in kinetic mode for 15 minutes. Data was recorded as milli-absorbance units per minute and slopes were compared to a control compound and a DMSO-only control on the same plate. Compounds with slopes less than the DMSO control were considered inhibitors and plate variability was assessed using the control compound.

[2] = Solubility (18 hr vortex mixing at room temperature, filtration, HPLC); format: physicochemical; conditions: thermodynamic from solid
Description: Ca. 1 mg portions of test article were combined with 120 μL solvent in wells of a 96×2 mL polypropylene plate. […] The contents of all wells were then filtered through a 0.45 μm GHP filter plate to yield clear filtrates. 5 μL of each filtrate was diluted into 100 μL DMF and vortex mixed to yield HPLC samples. Duplicate quantitation standards for each test article were prepared by diluting weighed portions of solid test article in measured volumes of DMF. 2 μL of each HPLC sample and quantitation standard were analyzed by HPLC using the method outlined in Table 5. Dissolved test article concentrations were calculated by peak area ratio against the appropriate quantitation standards.

[3] = read-out: GAC Delta N2 IC50 60 min preinc
[4] = read-out: GAC Delta N2 IC50 60 min

Row | Compound | IC50 [1, 4] [nM] | other results
1 | O=C(Cc1ccccc1)Nc1ccc(CCCCc2nnc(NC(=O)C(OC(=O)CCN3CCOCC3)c3cccc(Cl)c3)s2)nn1 (stereo not shown) [Compound 389] | – | IC50 [1, 3]: 84 nM
2 | O=C(Cc1ccccc1)Nc1nnc(CCCCc2nnc(NC(=O)Cc3cccc(OCCN4CCOCC4)c3)s2)s1 [Compound 390] | – | IC50 [1, 3]: 42 nM
3 | CN(Cc1cccc(CC(=O)Nc2nnc(CCCCc3nnc(NC(=O)Cc4ccccc4)s3)s2)c1)C(=O)OC(C)(C)C [Compound 391] | – | IC50 [1, 3]: 7 nM
4 | O=C(Cc1ccccc1)Nc1nnc(CCCCc2nnc(NC(=O)Cc3cccc(Cn4cccn4)c3)s2)s1 [Compound 392] | – | IC50 [1, 3]: 14 nM
5 | CNCc1cccc(CC(=O)Nc2nnc(CCCCc3nnc(NC(=O)Cc4ccccc4)s3)s2)c1 [Compound 393] | – | IC50 [1, 3]: 100 nM
6 | CCCC(=O)OCN(C(=O)Cc1ccccc1)c1nnc(CCCCc2ccc(NC(=O)Cc3ccccc3)nn2)s1 [Compound 402] | – | solubility at 18 h ([2]; 50 mM citrate buffer pH 2.3, 20 °C, aqueous buffer, 50 mM Cit pH 2.3, room temperature): < 4 µg/mL; solubility at 18 h ([2]; 50 mM citrate buffer pH 3.3, 20 °C, aqueous buffer, 50 mM Cit pH 3.3, room temperature): < 4 µg/mL; solubility at 18 h ([2]; 50 mM citrate buffer pH 4.4, 20 °C, aqueous buffer, 50 mM Cit pH 4.4, room temperature): < 4 µg/mL; solubility at 18 h ([2]; 50 mM citrate buffer pH 5.4, 20 °C, aqueous buffer, 50 mM Cit pH 5.4, room temperature): < 4 µg/mL; solubility at 18 h ([2]; 20 °C, aqueous buffer, PBS, room temperature): < 4 µg/mL; solubility at 18 h ([2]; 20 °C, aqueous with cosolvent or surfactant or cyclodextrin, 10% CrEL/50 mM cit, room temperature): 157 µg/mL (≈ 268 µM); solubility at 18 h ([2]; 20 °C, aqueous with cosolvent or surfactant or cyclodextrin, 10% PS80/50 mM cit, room temperature): 153 µg/mL (≈ 261 µM); solubility at 18 h ([2]; 20 °C, aqueous with cosolvent or surfactant or cyclodextrin, 20% HPBCD/50 mM cit, room temperature): 56 µg/mL (≈ 95.4 µM); solubility at 18 h ([2]; 20 °C, aqueous with cosolvent or surfactant or cyclodextrin, 20% SBECD/50 mM cit, room temperature): 19 µg/mL (≈ 32.4 µM); solubility at 18 h ([2]; 20 °C, oil or lipid, Capryol 90, room temperature): 13700 µg/mL (≈ 23300 µM); solubility at 18 h ([2]; 20 °C, oil or lipid, Capryol PGMC, room temperature): 11200 µg/mL (≈ 19100 µM); solubility at 18 h ([2]; 20 °C, oil or lipid, Labrasol, room temperature): 31000 µg/mL (≈ 52900 µM); solubility at 18 h ([2]; 20 °C, oil or lipid, canola oil, room temperature): 529 µg/mL (≈ 902 µM); solubility at 18 h ([2]; 20 °C, organic solvent or mixture, EtOH, room temperature): 2960 µg/mL (≈ 5040 µM); solubility at 18 h ([2]; 20 °C, organic solvent or mixture, PEG400, room temperature): 30200 µg/mL (≈ 51400 µM); solubility at 18 h ([2]; 20 °C, organic solvent or mixture, PG, room temperature): 1360 µg/mL (≈ 2330 µM); solubility at 18 h ([2]; 20 °C, pH 1, simulated gastric fluid, 0.1M HCl, room temperature): < 4 µg/mL; solubility at 18 h ([2]; 20 °C, pH 13, aqueous buffer, 0.1M NaOH, room temperature): < 4 µg/mL; solubility at 18 h ([2]; 20 °C, saline or isotonic, 0.9% NaCl, room temperature): < 4 µg/mL; solubility at 18 h ([2]; water, room temperature (ca. 20 C)): < 4 µg/mL
7 | Nc1ccc(CCCCc2nnc(NC(=O)C(O)c3cccc(Cl)c3)s2)nn1 (stereo not shown) [Compound 411] | 220 | –
8 | CC(C)(C)OC(=O)NCc1cccc(CC(=O)Nc2nnc(CCCCc3ccc(NC(=O)C(O)c4cccc(Cl)c4)nn3)s2)c1 (stereo not shown) [Compound 422] | 7 | –
9 | O=C(Nc1ccc(CCCCc2nnc(NC(=O)C(O)c3cccc(Cl)c3)s2)nn1)C(O)c1cccc(Cl)c1 (stereo not shown) [Compound 446] | 11 | –
10 | CC(C(=O)Nc1ccc(CCCCc2nnc(NC(=O)C(O)c3cccc(Cl)c3)s2)nn1)c1ccccc1 (stereo not shown) [Compound 468] | 16 | –
11 | O=C(Cc1ccccc1)Nc1ccc(CCCCc2nnc(NC(=O)Cc3cccc(OCc4ccccn4)c3)s2)nn1 [Compound 480] | > 20000 | –
12 | CC(C(=O)Nc1nnc(CCCCc2ccc(NC(=O)Cc3cccc(CNC(=O)OC(C)(C)C)c3)nn2)s1)c1ccccc1 (stereo not shown) [Compound 489] | 8 | –
13 | CC(C)(C)OC(=O)NCc1cc(CC(=O)Nc2nnc(CCCCc3ccc(NC(=O)Cc4ccccc4)nn3)s2)ccc1F [Compound 492] | 6 | –
14 | O=C(Cc1ccccc1)Nc1ccc(CCCCc2nnc(NC(=O)C(O)c3ccc(-c4ccccc4)cc3OCCO)s2)nn1 (stereo not shown) [Compound 504] | 7 | –
15 | CC(C)(C)OC(=O)NCc1cccc(CC(=O)Nc2nnc(CCCCc3ccc(NC(=O)C(O)(CO)c4ccccc4)nn3)s2)c1 (stereo not shown) [Compound 507] | 13 | –
16 | COC(C(=O)Nc1ccc(CCCCc2nnc(NC(=O)Cc3cccc(CNC(=O)OC(C)(C)C)c3)s2)nn1)c1ccccc1 (stereo not shown) [Compound 508] | 11 | –
17 | COC(C(=O)Nc1nnc(CCCCc2ccc(NC(=O)Cc3cccc(CNC(=O)OC(C)(C)C)c3)nn2)s1)c1ccccc1 (stereo not shown) [Compound 509] | 10 | –
18 | CC(C)(C)OC(=O)NCc1cccc(CC(=O)Nc2nnc(CCCCc3ccc(NC(=O)C4(C)COC(C)(C)OC4)nn3)s2)c1 [Compound 529] | 32 | –

Row | Compound | IC50 [1, 4] [nM] | other results
19 | Cc1ccccc1CC(=O)Nc1nnc(CCCCc2ccc(NC(=O)Cc3ccccc3Cl)nn2)s1 [Compound 535] | 7 | –
20 | Cc1ccccc1CC(=O)Nc1nnc(CCCCc2ccc(NC(=O)Cc3ccccc3F)nn2)s1 [Compound 536] | 6 | –
21 | CCCC(=O)OCN(C(=O)Cc1cccc(CNC(=O)OC(C)(C)C)c1)c1nnc(CCCCc2ccc(NC(=O)Cc3ccccc3)nn2)s1 [Compound 552] | > 20000 | –
22 | CC(C)Cc1ccc(C(C)C(=O)Nc2nnc(CCCCc3ccc(NC(=O)Cc4ccccc4)nn3)s2)cc1 (stereo not shown) [Compound 557] | 25 | –
23 | O=C(Cc1ccccc1F)Nc1ccc(CCCCc2nnc(NC(=O)Cc3ccccc3Cl)s2)nn1 [Compound 566] | 6 | –
24 | CCCC(=O)OCN(C(=O)C(CO)c1cccc(CNC(=O)OC(C)(C)C)c1)c1nnc(CCCCc2ccc(NC(=O)Cc3ccccc3)nn2)s1 (stereo not shown) [Compound 567] | 430 | –
25 | CC(C(=O)Nc1nnc(CCCCc2ccc(NC(=O)Cc3ccccc3)nn2)s1)c1ccc(F)c(CNC(=O)OC(C)(C)C)c1 (stereo not shown) [Compound 568] | 9 | –
26 | CN(Cc1cc(CC(=O)Nc2nnc(CCCCc3ccc(NC(=O)Cc4ccccc4)nn3)s2)ccc1F)C(=O)OC(C)(C)C [Compound 569] | 6 | –
27 | CCCC(=O)OCN(C(=O)Cc1cccc(CC(=O)N2CCC(F)(F)CC2)c1)c1nnc(CCCCc2ccc(NC(=O)Cc3ccccc3)nn2)s1 [Compound 570] | 430 | –
28 | CCOC(=O)NCc1cc(C(C)C(=O)Nc2nnc(CCCCc3ccc(NC(=O)Cc4ccccc4)nn3)s2)ccc1F (stereo not shown) [Compound 574] | 6 | –
29 | CC(C(=O)Nc1nnc(CCCCc2ccc(NC(=O)Cc3cccc(CNC(=O)OCCF)c3)nn2)s1)c1ccccc1 (stereo not shown) [Compound 591] | 4 | –
30 | CC(C(=O)Nc1ccc(CCCCc2nnc(NC(=O)Cc3ccccc3)s2)nn1)c1ccc(F)c(CN(C)C(=O)OC(C)(C)C)c1 (stereo not shown) [Compound 599] | 10 | –
31 | CC(NC(=O)OC(C)(C)C)c1cccc(CC(=O)Nc2ccc(CCCCc3nnc(NC(=O)C(C)c4ccccc4)s3)nn2)c1 (stereo not shown) [Compound 603] | 9 | –
32 | COC(C(=O)Nc1nnc(CCCCc2ccc(NC(=O)Cc3cccc(CNC(=O)CC(O)C(F)(F)F)c3)nn2)s1)c1ccccc1 (stereo not shown) [Compound 604] | 15 | –
33 | COC(C(=O)Nc1nnc(CCCCc2ccc(NC(=O)Cc3cccc(CNC(=O)CC(C)(O)C(F)(F)F)c3)nn2)s1)c1ccccc1 (stereo not shown) [Compound 605] | 13 | –
34 | CC(C(=O)Nc1nnc(CCCCc2ccc(NC(=O)Cc3cccc(CNC(=O)CC(O)C(F)(F)F)c3)nn2)s1)c1ccccc1 (stereo not shown) [Compound 606] | 7 | –
35 | CC(C(=O)Nc1nnc(CCCCc2ccc(NC(=O)Cc3cccc(CNC(=O)CC(C)(O)C(F)(F)F)c3)nn2)s1)c1ccccc1 (stereo not shown) [Compound 607] | 7 | –
36 | CC(C(=O)Nc1ccc(CCCCc2nnc(NC(=O)C(C)c3ccccc3)s2)nn1)c1ccccc1 (stereo not shown) [Compound 613] | 19 | –

The next lines start with results.

Row | IC50 [1, 4] [nM] | Compound | other results
37 | 88 | CN(C)Cc1cccc(CC(=O)Nc2nnc(CCCCc3nnc(NC(=O)Cc4ccccc4)s3)s2)c1 [Compound 394] | –
38 | 56 | Cc1cccc(CNC(=O)Nc2nnc(CCCCc3nnc(NC(=O)Cc4ccccc4)s3)s2)c1 [Compound 417] | –
39 | 70 | NCc1cccc(CC(=O)Nc2nnc(CCCCc3nnc(NC(=O)Cc4ccccc4)s3)s2)c1 [Compound 437] | –
40 | 740 | CC(C)NC(=O)Nc1nnc(CCCCc2nnc(NC(=O)Cc3ccccc3)s2)s1 [Compound 438] | –
41 | 7 | O=C(CN1CCOCC1)NCc1ccc(CC(=O)Nc2nnc(CCCCc3ccc(NC(=O)Cc4ccccc4)nn3)s2)cc1 [Compound 442] | –
42 | 19 | CC(C)(C)OC(=O)N1CCN(Cc2cc(CC(=O)Nc3nnc(CCCCc4ccc(NC(=O)Cc5ccccc5)nn4)s3)ccc2F)CC1 [Compound 493] | –
43 | 19 | O=C(Cc1ccccc1)Nc1ccc(CCCCc2nnc(NC(=O)Cc3ccc(F)c(CN4CCNCC4)c3)s2)nn1 [Compound 494] | –
44 | 580 | O=C(Cc1ccccc1)Nc1ccc(CCCCc2nnc(NC(=O)CC3=CN4CCCN=C4S3)s2)nn1 [Compound 511] | –
45 | 7 | CC(=O)N1CCN(Cc2cc(CC(=O)Nc3nnc(CCCCc4ccc(NC(=O)Cc5ccccc5)nn4)s3)ccc2F)CC1 [Compound 528] | –
